Measurements published in patent US10392368B2, “Pyrazolo and triazolo bicyclic compounds as JAK kinase inhibitors” (THERAVANCE BIOPHARMA R&D IP, LLC, priority 2017, dated 2019).
Like-named read-outs stand apart in the source and are kept apart here.

What was measured:
[1] = biological target: T1, JAK1 (Homo sapiens, UniProt P23458); experiment: Biochemical JAK1 kinase assay (LanthaScreen); settings: for Ki: read-out: JAK 1 (pKi) (converted)
T1 construct: GST; purchased Life Technologies
Summary of the method: (§1)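 GST-JAK + GFP-STAT1 peptide + cpd, 1 h preinc RT; ATP start, 1% DMSO, 1 h RT; stop 10 mM EDTA + 2 nM Tb-anti-pSTAT1; 1 h; TR-FRET 520/495. % inhib vs DMSO/background → IC50 (4-PL) → pKi (Cheng-Prusoff).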

[2] = biological target: T2, JAK2 (Homo sapiens, UniProt O60674); experiment: Biochemical JAK2 kinase assay (LanthaScreen); settings: for Ki: read-out: JAK 2 (pKi) (converted)
T2 construct: GST; purchased Life Technologies
T2 sequence (O60674 whole entry): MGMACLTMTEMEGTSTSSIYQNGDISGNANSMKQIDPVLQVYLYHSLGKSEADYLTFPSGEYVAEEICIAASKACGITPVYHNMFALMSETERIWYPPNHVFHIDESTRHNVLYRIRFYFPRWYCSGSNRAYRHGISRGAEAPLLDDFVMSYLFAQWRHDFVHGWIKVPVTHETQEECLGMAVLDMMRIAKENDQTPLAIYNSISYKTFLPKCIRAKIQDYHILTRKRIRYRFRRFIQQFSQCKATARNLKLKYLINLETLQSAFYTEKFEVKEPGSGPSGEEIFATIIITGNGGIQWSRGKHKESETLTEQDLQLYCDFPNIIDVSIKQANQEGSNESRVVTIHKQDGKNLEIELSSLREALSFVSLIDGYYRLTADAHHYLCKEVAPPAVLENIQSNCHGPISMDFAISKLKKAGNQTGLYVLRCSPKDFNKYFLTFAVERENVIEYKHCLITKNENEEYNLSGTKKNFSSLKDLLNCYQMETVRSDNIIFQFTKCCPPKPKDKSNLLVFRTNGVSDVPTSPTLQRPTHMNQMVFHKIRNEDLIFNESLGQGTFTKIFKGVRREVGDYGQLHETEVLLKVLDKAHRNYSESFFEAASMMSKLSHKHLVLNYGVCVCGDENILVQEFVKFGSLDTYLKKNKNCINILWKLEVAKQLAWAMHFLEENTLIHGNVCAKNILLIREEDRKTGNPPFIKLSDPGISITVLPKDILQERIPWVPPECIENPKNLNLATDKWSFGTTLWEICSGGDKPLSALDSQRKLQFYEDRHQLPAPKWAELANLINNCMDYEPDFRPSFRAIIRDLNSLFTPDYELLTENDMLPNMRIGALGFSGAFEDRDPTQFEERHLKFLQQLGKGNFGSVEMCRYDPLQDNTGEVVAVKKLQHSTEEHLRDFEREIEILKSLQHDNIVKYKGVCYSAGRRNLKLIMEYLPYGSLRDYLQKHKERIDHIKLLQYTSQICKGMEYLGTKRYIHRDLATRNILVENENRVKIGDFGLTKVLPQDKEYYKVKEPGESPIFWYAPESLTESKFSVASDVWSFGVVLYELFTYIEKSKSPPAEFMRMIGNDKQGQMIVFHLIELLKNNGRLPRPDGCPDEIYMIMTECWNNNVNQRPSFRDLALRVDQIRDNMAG
Summary of the method: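 GST-tagged recombinant JAK2 pre-incubated 1 h at ambient temperature with compound and GFP-STAT1 peptide in HEPES pH 7.5/MgCl2 buffer, then ATP added for a 1 h reaction with 1% DMSO. TR-FRET read after EDTA and Tb-anti-pSTAT1 (pTyr701) addition; IC50 from 4-parameter fit, converted to pKi by Cheng-Prusoff.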

[3] = biological target: T3, Tyk2 (Homo sapiens, UniProt P29597); experiment: Biochemical Tyk2 kinase assay (LanthaScreen); settings: for Ki: read-out: Tyk 2 (pKi) (converted)
T3 construct: GST; purchased Life Technologies
T3 sequence (P29597 whole entry): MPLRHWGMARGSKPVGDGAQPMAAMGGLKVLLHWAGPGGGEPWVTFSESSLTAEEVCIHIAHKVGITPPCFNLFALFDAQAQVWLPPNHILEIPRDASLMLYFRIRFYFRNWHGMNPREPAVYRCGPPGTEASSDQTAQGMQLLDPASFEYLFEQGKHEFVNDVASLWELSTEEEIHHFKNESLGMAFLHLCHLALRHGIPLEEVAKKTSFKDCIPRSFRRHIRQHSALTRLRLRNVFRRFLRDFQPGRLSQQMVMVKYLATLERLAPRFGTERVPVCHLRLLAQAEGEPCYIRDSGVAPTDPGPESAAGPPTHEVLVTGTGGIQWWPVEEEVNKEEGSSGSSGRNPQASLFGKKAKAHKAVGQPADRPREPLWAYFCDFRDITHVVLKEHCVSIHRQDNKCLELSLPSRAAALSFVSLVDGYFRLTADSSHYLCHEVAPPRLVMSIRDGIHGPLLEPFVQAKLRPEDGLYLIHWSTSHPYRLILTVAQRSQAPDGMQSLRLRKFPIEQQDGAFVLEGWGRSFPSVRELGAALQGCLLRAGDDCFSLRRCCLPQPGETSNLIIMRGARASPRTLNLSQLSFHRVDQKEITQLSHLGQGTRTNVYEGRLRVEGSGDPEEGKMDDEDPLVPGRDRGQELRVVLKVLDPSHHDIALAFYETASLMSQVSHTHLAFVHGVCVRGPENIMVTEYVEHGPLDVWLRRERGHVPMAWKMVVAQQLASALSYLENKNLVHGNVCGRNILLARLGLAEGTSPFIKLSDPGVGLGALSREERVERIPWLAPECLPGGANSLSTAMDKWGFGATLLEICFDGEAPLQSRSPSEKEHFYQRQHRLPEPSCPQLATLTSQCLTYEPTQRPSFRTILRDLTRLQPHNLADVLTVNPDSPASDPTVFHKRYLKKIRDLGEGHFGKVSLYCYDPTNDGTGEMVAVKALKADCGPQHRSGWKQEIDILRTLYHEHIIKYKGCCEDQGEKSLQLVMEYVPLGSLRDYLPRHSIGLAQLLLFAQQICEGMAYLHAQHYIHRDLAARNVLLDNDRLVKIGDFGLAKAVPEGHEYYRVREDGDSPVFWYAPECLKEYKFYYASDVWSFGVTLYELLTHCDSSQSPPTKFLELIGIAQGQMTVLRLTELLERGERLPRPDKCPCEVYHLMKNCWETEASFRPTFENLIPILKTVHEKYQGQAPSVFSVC
Summary of the method: as §1

[4] = test system: IL-2 stimulated pSTAT5 in Tall-1 T cells; experiment: Cellular JAK3 potency assay: inhibition of IL-2 stimulated pSTAT5 in Tall-1 T cells; format: cell-based, human; settings: for IC50: Homo sapiens, read-out: Tall-1 (pIC50) (converted)
Summary of the method: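 In human Tall-1 T cells, IL-2 (300 ng/ml final, 30 min) drives STAT5 phosphorylation after a 1 h compound pretreatment. Lysates are assayed for pSTAT5 by AlphaLisa, and IC50 derived from signal versus concentration is expressed as pIC50.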

[5] = biological target: T4, JAK3 (Homo sapiens, UniProt P52333); experiment: Biochemical JAK3 kinase assay (LanthaScreen); design: GST; purchased Life Technologies; settings: for Ki: read-out: JAK 3 (pKi) (converted)
T4 sequence (P52333 1-1124): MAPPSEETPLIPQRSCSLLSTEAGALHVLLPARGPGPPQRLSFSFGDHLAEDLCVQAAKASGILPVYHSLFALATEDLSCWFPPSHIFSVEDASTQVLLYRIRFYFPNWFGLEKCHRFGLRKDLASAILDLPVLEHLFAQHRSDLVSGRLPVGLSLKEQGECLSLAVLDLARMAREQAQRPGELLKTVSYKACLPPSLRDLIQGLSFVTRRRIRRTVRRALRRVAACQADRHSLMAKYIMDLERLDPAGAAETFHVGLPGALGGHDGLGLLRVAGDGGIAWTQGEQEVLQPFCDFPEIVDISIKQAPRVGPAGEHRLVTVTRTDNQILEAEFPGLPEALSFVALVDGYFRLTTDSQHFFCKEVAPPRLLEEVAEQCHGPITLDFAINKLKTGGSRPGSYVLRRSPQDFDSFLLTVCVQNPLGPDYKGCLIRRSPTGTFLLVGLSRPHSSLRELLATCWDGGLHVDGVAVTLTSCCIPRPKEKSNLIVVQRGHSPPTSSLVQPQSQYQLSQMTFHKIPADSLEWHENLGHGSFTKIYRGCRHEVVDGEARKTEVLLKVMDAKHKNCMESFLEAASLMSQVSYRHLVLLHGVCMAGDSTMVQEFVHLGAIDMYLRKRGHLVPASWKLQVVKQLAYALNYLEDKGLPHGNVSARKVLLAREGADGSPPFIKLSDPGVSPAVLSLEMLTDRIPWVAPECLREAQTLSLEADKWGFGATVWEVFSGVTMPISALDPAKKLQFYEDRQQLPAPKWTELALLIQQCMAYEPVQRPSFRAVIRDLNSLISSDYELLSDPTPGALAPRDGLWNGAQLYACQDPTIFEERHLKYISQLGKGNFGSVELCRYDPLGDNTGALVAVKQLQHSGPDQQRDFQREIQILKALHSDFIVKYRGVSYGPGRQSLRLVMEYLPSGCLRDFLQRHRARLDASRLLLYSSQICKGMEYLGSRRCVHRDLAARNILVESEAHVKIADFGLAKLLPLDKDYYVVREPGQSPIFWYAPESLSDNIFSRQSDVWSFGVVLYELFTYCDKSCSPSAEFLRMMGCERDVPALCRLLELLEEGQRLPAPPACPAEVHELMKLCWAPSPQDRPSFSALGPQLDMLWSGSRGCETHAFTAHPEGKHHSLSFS
Summary of the method: as §1

[6] = TALL-1, IL-2 stimulated pSTAT5 in Tall-1 T cells
[7] = selectivity: difference of pKi JAK3 and pKi JAK1
[8] = TALL-1, IL-2 stimulated pSTAT5, Tall-1 T cells
[9] = selectivity JAK3 over JAK1, difference of pKi
[10] = IL-2 stimulated pSTAT5 in Tall-1 T cells
[11] = IL-2 stimulated pSTAT5, Tall-1 T cells

T1 sequence (P23458 whole entry): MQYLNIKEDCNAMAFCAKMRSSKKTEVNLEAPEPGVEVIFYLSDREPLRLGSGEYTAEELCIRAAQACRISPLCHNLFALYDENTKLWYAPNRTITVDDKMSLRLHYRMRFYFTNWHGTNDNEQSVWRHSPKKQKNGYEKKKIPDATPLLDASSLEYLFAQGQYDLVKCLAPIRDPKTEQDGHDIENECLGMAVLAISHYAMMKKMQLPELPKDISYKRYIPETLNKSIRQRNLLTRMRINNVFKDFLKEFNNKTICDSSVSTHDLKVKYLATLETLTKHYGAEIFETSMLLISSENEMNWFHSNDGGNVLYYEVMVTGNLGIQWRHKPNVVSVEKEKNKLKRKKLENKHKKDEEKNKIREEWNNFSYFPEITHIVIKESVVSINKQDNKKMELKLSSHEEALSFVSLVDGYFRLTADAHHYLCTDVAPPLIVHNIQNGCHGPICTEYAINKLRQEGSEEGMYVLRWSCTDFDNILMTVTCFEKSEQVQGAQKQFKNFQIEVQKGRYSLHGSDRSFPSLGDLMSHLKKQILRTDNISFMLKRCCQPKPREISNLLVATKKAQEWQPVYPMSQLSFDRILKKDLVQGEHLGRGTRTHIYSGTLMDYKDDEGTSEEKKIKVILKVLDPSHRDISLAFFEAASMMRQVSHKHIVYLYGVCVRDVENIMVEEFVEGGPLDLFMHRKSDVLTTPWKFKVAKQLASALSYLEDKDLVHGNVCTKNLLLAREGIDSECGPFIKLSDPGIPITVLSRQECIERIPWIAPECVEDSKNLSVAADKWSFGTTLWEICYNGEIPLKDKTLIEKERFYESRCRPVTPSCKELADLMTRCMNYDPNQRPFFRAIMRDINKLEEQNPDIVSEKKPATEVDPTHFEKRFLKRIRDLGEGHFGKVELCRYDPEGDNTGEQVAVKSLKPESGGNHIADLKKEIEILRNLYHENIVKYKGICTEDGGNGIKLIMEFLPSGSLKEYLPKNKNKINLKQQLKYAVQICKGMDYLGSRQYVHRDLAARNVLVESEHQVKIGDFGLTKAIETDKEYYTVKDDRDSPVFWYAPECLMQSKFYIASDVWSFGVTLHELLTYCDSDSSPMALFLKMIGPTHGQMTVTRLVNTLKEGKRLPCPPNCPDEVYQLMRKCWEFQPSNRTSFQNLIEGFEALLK

SMILES | Ki [1] | Ki [2] | Ki [3] | IC50 [4, 6] | Ki [5] | JAK3 (pKi)-JAK1 (pKi) [5, 7] | IC50 [4, 8] | JAK3 (pKi)-JAK1 (pKi) [5, 9] | JAK 1 (pKi) [1] | JAK 2 (pKi) [2] | Tyk 2 (pKi) [3] | Tall-1 (pIC50) [4, 10] | JAK 3 (pKi) [5] | Tall-1 (pIC50) [4, 11]
COC1(C)CN(C/C=C/C(=O)N2CC(COc3cc(-c4ccc(O)cc4)cc4[nH]ncc34)C2)C1 [Compound 3-133] | > 0.1 µM | 0.01 to 0.1 µM | > 0.1 µM | 0.2 to 1 µM | < 0.0001 µM | A (a value of 3 or above) | – | – | – | – | – | – | – | –
C=CC(=O)N1CC(COc2cc(-c3ccc(O)cc3)cc3[nH]ncc23)C1 [Compound 3-1] | > 0.1 µM | > 0.1 µM | > 0.1 µM | < 0.0316 µM | 0.0001 to 0.001 µM | A (a value of 3 or above) | – | – | – | – | – | – | – | –
C=CC(=O)N1CC(C#N)(COc2nc(-c3ccc(O)c(Cl)c3)nc3[nH]ncc23)C1 [Compound 3-109] | > 0.1 µM | > 0.1 µM | > 0.1 µM | 0.0316 to 0.2 µM | 0.0001 to 0.001 µM | A (a value of 3 or above) | – | – | – | – | – | – | – | –
C=CC(=O)N1CC[C@@H](Nc2cc(-c3ccc(O)cc3)cc3[nH]ncc23)[C@H](C)C1 [Compound 12-17] | 0.01 to 0.1 µM | 0.001 to 0.01 µM | > 0.1 µM | – | < 0.0001 µM | – | < 0.0316 µM | B (a value of 2.3 to 3) | – | – | – | – | – | –
C=CC(=O)N1CC(CC)(COc2nc(-c3ccc(O)cc3)cc3[nH]ncc23)C1 [Compound 3-62] | – | – | – | – | – | A (a value of 3 or above) | – | – | E (a pKi value of 7 or below (Ki of 100 nM or above)) | D (a pKi value between 7 and 8 (Ki between 100 nM and 10 nM)) | E (a pKi value of 7 or below (Ki of 100 nM or above)) | A (a pIC50 value≥7.5 (IC50≤32 nM)) | B (a pKi value between 9 and 10 (Ki between 1 nM and 0.1 nM)) | –
C=CC(=O)N1CCC(COc2cc(-c3ccc(O)c(F)c3)nc3[nH]ncc23)CC1 [Compound 14-9] | – | – | – | – | – | – | – | A (a value of 3 or above) | E (a pKi value of 7 or below (Ki of 100 nM or above)) | E (a pKi value of 7 or below (Ki of 100 nM or above)) | E (a pKi value of 7 or below (Ki of 100 nM or above)) | – | B (a pKi value between 9 and 10 (Ki between 1 nM and 0.1 nM)) | B (a pIC50 value between 6.7 (included) and 7.5 (IC50 between 200 nM and 32 nM))
CN(C)C/C=C/C(=O)N1CC(F)(COc2cc(-c3ccc(O)c(F)c3)nc3[nH]ncc23)C1 [Compound 3-53] | > 0.1 µM | > 0.1 µM | > 0.1 µM | 0.0316 to 0.2 µM | 0.0001 to 0.001 µM | A (a value of 3 or above) | – | – | – | – | – | – | – | –
C=CC(=O)N1CC(COc2cc(-c3ccc(O)cc3)cc3[nH]ncc23)C1C (stereo not drawn) [Compound 3-114] | – | – | – | – | – | A (a value of 3 or above) | – | – | E (a pKi value of 7 or below (Ki of 100 nM or above)) | E (a pKi value of 7 or below (Ki of 100 nM or above)) | E (a pKi value of 7 or below (Ki of 100 nM or above)) | A (a pIC50 value≥7.5 (IC50≤32 nM)) | B (a pKi value between 9 and 10 (Ki between 1 nM and 0.1 nM)) | –
C=CC(=O)N1CCSC(C(=O)Nc2cc(-c3ccc(O)cc3)cc3[nH]ncc23)C1 (stereo not drawn) [Compound 12-43] | – | – | – | – | < 0.0001 µM | – | – | A (a value of 3 or above) | E (a pKi value of 7 or below (Ki of 100 nM or above)) | D (a pKi value between 7 and 8 (Ki between 100 nM and 10 nM)) | E (a pKi value of 7 or below (Ki of 100 nM or above)) | – | – | A (a pIC50 value≥7.5 (IC50≤32 nM))
C=CC(=O)N1CC[C@H](Oc2cc(-c3ccc(O)cc3)cc3[nH]ncc23)C[C@@H]1C [Compound 12-31] | > 0.1 µM | 0.001 to 0.01 µM | > 0.1 µM | – | < 0.0001 µM | – | 0.0316 to 0.2 µM | A (a value of 3 or above) | – | – | – | – | – | –
C=CC(=O)N1CC(COc2cc(-c3ccc(O)c(F)c3)cc3[nH]ncc23)C1 [Compound 3-4] | > 0.1 µM | 0.01 to 0.1 µM | > 0.1 µM | < 0.0316 µM | 0.0001 to 0.001 µM | A (a value of 3 or above) | – | – | – | – | – | – | – | –
C=CC(=O)N1CC(COc2cc(-c3ccc(O)cc3)cc3[nH]nc(C(F)(F)F)c23)C1 [Compound 18-13] | > 0.1 µM | 0.01 to 0.1 µM | > 0.1 µM | – | < 0.0001 µM | – | < 0.0316 µM | A (a value of 3 or above) | – | – | – | – | – | –
C=CC(=O)N1CC[C@H](Oc2cc(-c3ccc(O)c(Cl)c3)cc3[nH]nc(C)c23)C1 [Compound 24, (S)-1-(3-((6-(3-chloro-4-hydroxyphenyl)-3-methyl-1H-indazol-4-yl)oxy)pyrrolidin-1-yl)prop-2-en-1-one] | > 0.1 µM | > 0.1 µM | > 0.1 µM | < 0.0316 µM | 0.0001 to 0.001 µM | A (a value of 3 or above) | – | – | – | – | – | – | – | –
C=CC(=O)N1CC(Oc2cc(-c3ccc(O)c(Cl)c3)cc3[nH]ncc23)C1 [Compound 5-4] | – | – | – | – | – | A (a value of 3 or above) | – | – | E (a pKi value of 7 or below (Ki of 100 nM or above)) | E (a pKi value of 7 or below (Ki of 100 nM or above)) | E (a pKi value of 7 or below (Ki of 100 nM or above)) | A (a pIC50 value≥7.5 (IC50≤32 nM)) | B (a pKi value between 9 and 10 (Ki between 1 nM and 0.1 nM)) | –
C=CC(=O)N1CC(CSc2cc(-c3ccc(O)cc3)nc3[nH]ncc23)C1 [Compound 13-9] | – | – | – | – | – | – | – | A (a value of 3 or above) | E (a pKi value of 7 or below (Ki of 100 nM or above)) | E (a pKi value of 7 or below (Ki of 100 nM or above)) | E (a pKi value of 7 or below (Ki of 100 nM or above)) | – | B (a pKi value between 9 and 10 (Ki between 1 nM and 0.1 nM)) | B (a pIC50 value between 6.7 (included) and 7.5 (IC50 between 200 nM and 32 nM))
C=CC(=O)N1CC(Oc2cc(-c3ccc(O)c(Cl)c3)cc3[nH]ncc23)(C(F)F)C1 [Compound 5-21] | – | – | – | – | – | – | – | A (a value of 3 or above) | E (a pKi value of 7 or below (Ki of 100 nM or above)) | E (a pKi value of 7 or below (Ki of 100 nM or above)) | E (a pKi value of 7 or below (Ki of 100 nM or above)) | – | B (a pKi value between 9 and 10 (Ki between 1 nM and 0.1 nM)) | A (a pIC50 value≥7.5 (IC50≤32 nM))
CN(C)C/C=C/C(=O)N1CC(F)(C2(Oc3cc(-c4ccc(O)cc4)cc4[nH]ncc34)CC2)C1 [Compound 12-36] | 0.01 to 0.1 µM | > 0.1 µM | > 0.1 µM | – | < 0.0001 µM | – | < 0.0316 µM | A (a value of 3 or above) | – | – | – | – | – | –
